Data reported in patent US12474342B2, “Methods for treating cancer and the use of biomarkers as a predictor of clinical sensitivity to therapies” (CELGENE CORPORATION, priority 2016, dated 2025).
Like-named read-outs stand apart in the source and are kept apart here. Marks after values point to notes of the source that are not given here.

Columns and labels:
KASUMI-1 cells [1] = experiment: Anti-proliferation 72-hour CTG assay, KASUMI-1; type: cell-based; details: Homo sapiens; KASUMI-1, 72-hour CTG assay; read-out: IC50 of the anti-proliferative effect
Procedure: (§1) A plethora of AML cell lines were treated with serial dilutions of Compound D. IC50 value of the anti-proliferation effect of Compound D (as determined in 72-hour CTG assays) in each cell line is summarized in Table 1.

MV-4-11 cells = experiment: Anti-proliferation 72-hour CTG assay, MV-4-11; type: cell-based; details: Homo sapiens, MV4-11; MV-4-11, 72-hour CTG assay; read-out: IC50 of the anti-proliferative effect
Procedure: as §1

[2] = tested on: nontumorigenic human hepatocellular cell line THLE-2; experiment: Anti-proliferation, THLE-2; type: cell-based; details: THLE-2 (data not shown)
HNT-34 cells = experiment: Apoptosis (caspase 3/7 activation), HNT-34; type: cell-based, human; details: for EC50: Homo sapiens, read-out: Compound D-induced Apoptosis EC50
KASUMI-1 cells [3] = experiment: Apoptosis (caspase 3/7 activation), Kasumi-1; type: cell-based, human
F36-P cells = experiment: Apoptosis (caspase 3/7 activation), F36-P; type: cell-based, human
ATF4 = ATF4 protein induction, western blot, HNT-34; type: cell-based, human; details: HNT-34, 10 nM Compound D
Procedure: The time course of GSPT1 degradation was monitored by western blot analysis of HNT-34 AML cells and normal PBMCs (FIGS. 32A-32D) following incubation with Compound D (1, 10, and 100 nM).

p-eIF2α = p-eIF2α immunoblot, OCI-AML2; type: cell-based, human; details: 300 μg/ml G418 or 200 nM Compound D
Procedure: It is known that amino acid starvation causes GCN2 activation, which phosphorylates eIF2α. Because GSPT1 mediates normal translation termination, it is hypothesized that depletion of GSPT1 by Compound D may cause readthrough of stop codons. Whether the translational readthrough induced by Compound D contributes to the increased levels of p-eIF2α was investigated. OCI-AML2 cells stably expressing the Fluc/Nluc-G36A readthrough reporter were treated with 300 μg/ml G418 or 200 nM Compound D for 2, 4, 6, 8, 10, 12, or 16 hours. The levels of p-eIF2α were measured by immunoblot analysis. AML2 readthrough assay was conducted to measure the readthrough reporter.

XBP1 = XBP1 assay in U937 cells; type: cell-based, human; details: 0.5 μM TG for 6 hours or 4 μM Compound D for 8, 16, or 32 hours
Procedure: IRE1, a kinase that activates the XBP1 pathway, was knocked out in U937 cells by CRISPR-mediated gene editing using IRE1 CRISPR constructs. Wild type U937 cells or IRE1 CRISPR knockout U937 cells were treated with 0.5 μM TG for 6 hours or 4 μM Compound D for 8, 16, or 32 hours, then subject to XBP1 assay.

[4] = tested on: proteins in the UPR pathway, PARP; experiment: UPR pathway proteins and PARP cleavage, western blot, healthy PBMCs; type: cell-based, human; details: 10 nM Compound D
GSPT1 [5] = biological target: T1, GSPT1 (Homo sapiens, UniProt P15170+Q96SW2); experiment: GSPT1 protein reduction, western analysis, HNT-34; type: cell-based; parameters: reduction in GSPT1 protein level was evaluated in human normal PBMCs; endogenous in cells; host or cells: primary PBMCs from normal donors (ID 4328, 4379) and AML patients (ID 11SH, 09P6); details: HNT-34, 10 nM Compound D
Procedure: (§2) The time course of the reduction in GSPT1 by Compound D also was studied for up to 48 hours. The progressive degradation of GSPT1 over the course of 1 to 20 hours was evident in the presence of all concentrations of Compound D studied from 3 to 300 nM in HNT-34, HL-60, and ML-2 cells, with little GSPT1 remaining by 20 hours at 100 or 300 nM Compound D in HNT-34 or HL-60 cells (FIG. 34 and FIG. 35C). Time-dependent reduction in GSPT1 was also observed in KG-1 and OCI-AML2 cells at 3 to 1000 nM Compound D, with little GSPT1 remaining in KG-1 cells at 100 to 300 nM at 24 hours or in OCI-AML2 cells at 300 and 1000 nM at 24 hours (FIG. 35D). Loss of GSPT1 occurred more slowly in Kasumi-1, AML-193, and […] cells. […] A positive association (r^2=0.50; […]

GSPT1 [6] = biological target: T1, GSPT1; experiment: GSPT1 protein reduction, western analysis, Kasumi-1; type: cell-based; parameters: reduction in GSPT1 protein level was evaluated in human normal PBMCs; endogenous in cells; host or cells: primary PBMCs from normal donors (ID 4328, 4379) and AML patients (ID 11SH, 09P6)
Procedure: as §2

GSPT1 [7] = biological target: T1, GSPT1; experiment: GSPT1 protein reduction, western analysis, F36-P; type: cell-based; parameters: reduction in GSPT1 protein level was evaluated in human normal PBMCs; endogenous in cells; host or cells: primary PBMCs from normal donors (ID 4328, 4379) and AML patients (ID 11SH, 09P6)
Procedure: as §2

T1 sequence (P15170 1-637 isoform P15170-3): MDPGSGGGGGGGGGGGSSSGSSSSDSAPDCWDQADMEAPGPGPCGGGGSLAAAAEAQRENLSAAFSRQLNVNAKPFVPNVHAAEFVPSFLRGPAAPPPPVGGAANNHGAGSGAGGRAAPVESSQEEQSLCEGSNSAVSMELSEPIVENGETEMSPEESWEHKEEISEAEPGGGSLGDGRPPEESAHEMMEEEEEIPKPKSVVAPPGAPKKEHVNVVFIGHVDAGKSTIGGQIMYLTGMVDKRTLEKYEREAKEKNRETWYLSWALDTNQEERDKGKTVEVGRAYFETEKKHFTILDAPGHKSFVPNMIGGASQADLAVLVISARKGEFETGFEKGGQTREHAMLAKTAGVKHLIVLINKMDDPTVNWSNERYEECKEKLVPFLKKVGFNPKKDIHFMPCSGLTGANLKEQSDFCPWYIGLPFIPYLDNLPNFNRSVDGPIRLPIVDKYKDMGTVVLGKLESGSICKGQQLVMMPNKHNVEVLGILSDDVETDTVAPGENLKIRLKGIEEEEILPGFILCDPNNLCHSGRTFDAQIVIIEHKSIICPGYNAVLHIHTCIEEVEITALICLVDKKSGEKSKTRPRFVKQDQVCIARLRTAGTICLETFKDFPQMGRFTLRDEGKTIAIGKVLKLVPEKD
T1 sequence (Q96SW2 whole entry): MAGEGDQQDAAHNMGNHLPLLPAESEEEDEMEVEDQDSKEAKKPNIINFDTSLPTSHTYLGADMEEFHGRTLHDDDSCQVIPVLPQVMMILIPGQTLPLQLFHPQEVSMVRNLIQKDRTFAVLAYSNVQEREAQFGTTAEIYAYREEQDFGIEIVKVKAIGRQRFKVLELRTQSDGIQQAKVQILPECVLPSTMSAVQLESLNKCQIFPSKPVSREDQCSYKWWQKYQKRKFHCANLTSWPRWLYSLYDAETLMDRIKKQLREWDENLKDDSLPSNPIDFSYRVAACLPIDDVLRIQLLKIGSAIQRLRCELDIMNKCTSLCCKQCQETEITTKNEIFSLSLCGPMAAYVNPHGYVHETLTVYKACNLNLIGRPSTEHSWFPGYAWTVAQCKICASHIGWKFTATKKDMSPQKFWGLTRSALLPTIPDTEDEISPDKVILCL
T1 sequence (Q16531 whole entry partner): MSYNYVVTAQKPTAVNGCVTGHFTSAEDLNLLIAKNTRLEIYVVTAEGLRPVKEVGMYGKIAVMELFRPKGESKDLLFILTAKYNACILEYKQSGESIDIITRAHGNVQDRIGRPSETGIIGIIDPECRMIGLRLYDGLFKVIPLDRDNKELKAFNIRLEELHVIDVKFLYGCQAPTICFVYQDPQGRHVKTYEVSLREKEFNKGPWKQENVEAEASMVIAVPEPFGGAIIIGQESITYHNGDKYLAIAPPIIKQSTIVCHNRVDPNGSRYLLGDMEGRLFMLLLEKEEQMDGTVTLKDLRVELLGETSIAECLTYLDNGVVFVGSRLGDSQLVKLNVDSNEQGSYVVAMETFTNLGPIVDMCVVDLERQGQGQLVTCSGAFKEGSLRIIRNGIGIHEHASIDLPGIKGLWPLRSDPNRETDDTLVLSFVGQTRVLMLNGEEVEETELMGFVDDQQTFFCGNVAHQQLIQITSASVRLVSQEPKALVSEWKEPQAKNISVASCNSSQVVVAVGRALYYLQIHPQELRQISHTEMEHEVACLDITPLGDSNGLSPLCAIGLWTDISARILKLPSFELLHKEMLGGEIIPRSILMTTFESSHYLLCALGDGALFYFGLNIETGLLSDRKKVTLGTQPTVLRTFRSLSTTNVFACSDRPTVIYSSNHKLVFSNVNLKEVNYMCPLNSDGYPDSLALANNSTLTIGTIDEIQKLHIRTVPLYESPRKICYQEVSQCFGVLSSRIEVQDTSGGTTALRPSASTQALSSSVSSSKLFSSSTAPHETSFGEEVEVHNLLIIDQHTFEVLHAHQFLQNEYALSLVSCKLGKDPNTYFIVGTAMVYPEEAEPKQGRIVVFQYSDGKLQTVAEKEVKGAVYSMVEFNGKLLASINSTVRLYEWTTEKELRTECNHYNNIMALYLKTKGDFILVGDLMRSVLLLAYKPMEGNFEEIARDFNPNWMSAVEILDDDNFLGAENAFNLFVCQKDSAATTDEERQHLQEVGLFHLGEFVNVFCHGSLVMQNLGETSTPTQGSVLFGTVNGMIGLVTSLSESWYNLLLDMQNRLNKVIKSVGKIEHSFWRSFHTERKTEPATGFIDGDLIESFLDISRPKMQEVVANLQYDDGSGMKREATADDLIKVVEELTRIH

O=C1CCC(N2Cc3cc(CNC(=O)C(F)(F)c4ccc(Cl)cc4)ccc3C2=O)C(=O)N1 (stereo not shown) [Compound D, 2-(4-chlorophenyl)-N-((2-(2,6-dioxopiperidin-3-yl)-1-oxoisoindolin-5-yl)methyl)-2,2-difluoroacetamide]
IC50 (KASUMI-1 cells [1]): 21 nM | IC50 (MV-4-11 cells): 29 nM | IC50 [2]: ~10000 nM | Average Percent Increase in Apoptosis at 123 nM Compound D, Apoptosis (12 hr) (HNT-34 cells; HNT-34, 123 nM, 12 hr): 3% | Average Percent Increase in Apoptosis at 123 nM Compound D, Apoptosis (24 hr) (HNT-34 cells; HNT-34, 123 nM, 24 hr): 12% | Average Percent Increase in Apoptosis at 123 nM Compound D, Apoptosis (48 hr) (HNT-34 cells; HNT-34, 123 nM, 48 hr): 32% | EC50 (HNT-34 cells; HNT-34, 24 hr): 7 nM | EC50 (HNT-34 cells; HNT-34, 48 hr): 4 nM | EC50 (HNT-34 cells; HNT-34, 96 hr): 2 nM | EC50 (KASUMI-1 cells [3]; Homo sapiens, read-out: Compound D-induced Apoptosis EC50, Kasumi-1, 96 hr): 55 nM | Average Percent Increase in Apoptosis at 123 nM Compound D, Apoptosis (12 hr) (KASUMI-1 cells [3]; Kasumi-1, 123 nM, 12 hr): 1% | Average Percent Increase in Apoptosis at 123 nM Compound D, Apoptosis (24 hr) (KASUMI-1 cells [3]; Kasumi-1, 123 nM, 24 hr): 3% | Average Percent Increase in Apoptosis at 123 nM Compound D, Apoptosis (48 hr) (KASUMI-1 cells [3]; Kasumi-1, 123 nM, 48 hr): 18% | Average Percent Increase in Apoptosis at 123 nM Compound D, Apoptosis (12 hr) (F36-P cells; 12 hr): 0% | Average Percent Increase in Apoptosis at 123 nM Compound D, Apoptosis (24 hr) (F36-P cells; 24 hr): 2% | Average Percent Increase in Apoptosis at 123 nM Compound D, Apoptosis (48 hr) (F36-P cells; 48 hr): 6% | time of induction of ATF4 protein (ATF4): 8 h | levels of p-eIF2α (p-eIF2α): increased the levels | XBP1 pathway (XBP1): activated the XBP1 pathway | induction of proteins in the UPR pathway or cleavage of PARP [4]: did not occur | time at which GSPT1 degradation was evident (GSPT1 [5]): ≤ 2 h | Percent Reduction at 100 nM Compound D GSPTI (8 hr) (GSPT1 [6]; Kasumi-1, 100 nM, 8 hr): 64% | GSPT1 reduction (GSPT1 [6]; Kasumi-1, 300 nM Compound D, 8 hours): 51% | Percent Reduction at 100 nM Compound D GSPTI (8 hr) (GSPT1 [7]; 100 nM, 8 hr, change not concentration-dependent at the 8-hour time point): 39^a % | GSPT1 reduction (GSPT1 [7]; 300 nM Compound D, 8 hours): 18%
